From the SangsterLogP compilation

Structure (SMILES)	logP
CCCCCCN(C)N=Nc1ccc(C(N)=O)cc1	3.59
CCN(C)N=Nc1ccc(C(=O)O)cc1	0.03
C#CCN(C)N=Nc1ccc(C(=O)O)cc1	-0.13
CN(O)N=Nc1ccc(C(N)=O)cc1	-0.22
CN(C)/N=N/c1ccc(C(N)=O)cc1	1.17
CCCCCCCCN(C)N=Nc1ccc(C(=O)O)cc1	2.96
CN(Cc1ccccc1)N=Nc1ccc(C(=O)O)cc1	0.94
CCCCCCCN(C)N=Nc1ccc(C(=O)O)cc1	2.37

Other lines, results leading:

logP	Structure (SMILES)
6.58	CCCCCCCCCCCCN(C)N=Nc1ccc(C(N)=O)cc1
0.26	CN(CCO)/N=N/c1ccc(C(N)=O)cc1
7.6	CCCCCCCCCCCCCCCCCCN(C)N=Nc1ccc(C(=O)O)cc1
0.38	C=CCN(C)N=Nc1ccc(C(=O)O)cc1
4.77	CCCCCCCCCCCCN(C)N=Nc1ccc(C(=O)O)cc1
0.42	CC(C)N(C)N=Nc1ccc(C(=O)O)cc1
4.15	CCCCCCCN(C)/N=N/c1ccc(C(N)=O)cc1
-0.29	CN(C)/N=N/c1ccc(C(=O)O)cc1
